Molecules are shown by their SMILES. pIC50: −log10 of the molar value.

This passage reports IC50 results from patent US11192907B2, “Aminopeptidase A inhibitors and pharmaceutical compositions comprising the same” (QUANTUM GENOMICS, priority 2018, dated 2021).

The assay has as its target T1, recombinant mouse APA (Mus musculus, UniProt P16406).
T1 sequence (P16406 1-945): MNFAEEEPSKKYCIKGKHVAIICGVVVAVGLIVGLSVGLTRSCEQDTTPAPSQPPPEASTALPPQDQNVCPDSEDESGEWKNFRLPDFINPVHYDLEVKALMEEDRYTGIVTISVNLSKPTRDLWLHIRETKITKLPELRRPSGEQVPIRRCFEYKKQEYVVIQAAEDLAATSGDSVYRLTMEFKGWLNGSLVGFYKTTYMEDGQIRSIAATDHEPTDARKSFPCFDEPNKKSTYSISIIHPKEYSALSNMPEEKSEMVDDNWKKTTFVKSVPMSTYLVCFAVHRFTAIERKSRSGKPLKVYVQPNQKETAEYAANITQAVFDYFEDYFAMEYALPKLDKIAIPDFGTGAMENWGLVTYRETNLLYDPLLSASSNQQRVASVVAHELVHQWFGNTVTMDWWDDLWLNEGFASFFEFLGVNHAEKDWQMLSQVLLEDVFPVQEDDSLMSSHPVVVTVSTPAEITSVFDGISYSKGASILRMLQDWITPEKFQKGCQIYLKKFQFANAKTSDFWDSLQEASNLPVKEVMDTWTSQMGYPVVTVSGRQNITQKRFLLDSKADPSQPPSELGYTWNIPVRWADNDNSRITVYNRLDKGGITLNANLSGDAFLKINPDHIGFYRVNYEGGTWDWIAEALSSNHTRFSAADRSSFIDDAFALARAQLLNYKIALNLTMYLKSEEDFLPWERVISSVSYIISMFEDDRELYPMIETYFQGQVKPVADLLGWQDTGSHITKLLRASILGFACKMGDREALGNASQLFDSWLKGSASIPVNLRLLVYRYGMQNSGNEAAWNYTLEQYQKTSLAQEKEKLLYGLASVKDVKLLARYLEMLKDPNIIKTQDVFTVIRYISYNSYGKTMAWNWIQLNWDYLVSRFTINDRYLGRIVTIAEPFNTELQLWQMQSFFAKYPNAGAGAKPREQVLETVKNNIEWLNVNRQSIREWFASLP
The assay can be described thus: Measurement of APA activity in vitro (GluβNa hydrolysis, microplate). Format: biochemical. The following applies: 200 μM Glu-βNa, pH 7.4, 37° C., read-out: In vitro inhibition of aminopeptidase A, IC50 classification. An excerpt: In vitro, in the presence of calcium ions, APA hydrolyses a synthetic substrate α-L-glutamyl-β-naphthylamide (GluβNa) to glutamate and β-naphthylamine (βNa). A diazotation reaction in acidic medium makes it possible to reveal the β-naphthylamine by formation of a violet-coloured complex: spectrophotometric measurement then makes it possible to know the amount of complex formed and, by reference to a standard curve produced with increasing concentrations of β-naphthylamine, to deduce the enzymatic activity of the sample.
The reaction takes place at pH 7.4 in 50 mM tris-HCl buffer, in the presence of calcium (4 mM CaCl2)); recombinant mouse APA is incubated at 37° C. in the presence of the substrate (200 μM Glu-βNa) and in the presence or absence of various concentrations of the inhibitor to be tested, in a final volume of 100 μL. The reaction is stopped by adding 10 μL of 3N HCl. A standard curve of β-naphthylamine was prepared in parallel by diazotizing increasing concentrations (up to 0.2 mM) of 2-naphthylamine in 0.1 N HCl.
The following are added to each well: 25 μL of sodium nitrite (NaNO2) (mix, wait 5 minutes at room temperature), 50 μL of ammonium sulfamate (mix, wait 5 minutes at room temperature), then add 25 μL of N-(1-naphthyl) ethylenediamine dihydrochloride (mix, wait for stabilization of the violet colour for approximately 30 minutes at 37° C.).
The absorbance is then measured at 540 nm.
With `Cc1cccc(CCP(=O)(O)C(N)CCC(=O)O)c1` (stereo not shown) [Example 24, 4-amino-4-{hydroxy[2-(3-methylphenyl)ethyl]phosphoryl}butanoic acid], the pIC50 (in general, −log10 of the IC50, conventionally taken in molar units) was above 7.52.
With `NC(CCCC(=O)O)P(=O)(O)CCc1ccccc1` (stereo not shown) [Example 49, 5-amino-5-[hydroxy(2-phenylethyl)phosphoryl]pentanoic acid], the pIC50 is 5.00 to 6.52.
`NC(CCC(=O)O)P(=O)(O)CCc1cccc(Cl)c1` (stereo not shown) [Example 29, 4-amino-4-{[2-(3-chlorophenyl)ethyl](hydroxy)phosphoryl}butanoic acid]: the negative-log IC50 (pIC50) is 6.52 to 7.52.
For `N[C@@H](CCC(=O)O)P(=O)(O)CCc1ccccc1` [Example 50, (1R)-3-carboxy-1-[hydroxy(2-phenylethyl)phosphoryl]propan-1-aminium chloride], the pIC50 was above 7.52.
As to `NC(CCC(=O)O)P(=O)(O)CCc1cccc2ccccc12` (stereo not shown) [Example 31, 4-amino-4-{hydroxy[2-(naphthalen-1-yl)ethyl]phosphoryl}butanoic acid], the pIC50 was above 7.52.
Take `N#Cc1ccc(CP(=O)(O)C(N)CCC(=O)O)cc1` (stereo not shown) [Example 14, 4-amino-4-{[(4-cyanophenyl)methyl](hydroxy)phosphoryl}butanoic acid]: the negative logarithm of the IC50 (pIC50) is 6.52 to 7.52.
The same measure for `NC(CCC(=O)O)P(=O)(O)Cc1cccc(-c2ccccc2)c1` (stereo not shown) [Example 19, 4-amino-4-[({[1,1′-biphenyl]-3-yl}methyl)(hydroxy)phosphoryl]butanoic acid]: 6.52 to 7.52; for `NC(CCC(=O)O)P(=O)(O)Cc1cc(C(F)(F)F)cc(C(F)(F)F)c1` (stereo not shown) [Example 5, 4-amino-4-({[3,5-bis(trifluoromethyl)phenyl]methyl}(hydroxy)phosphoryl) butanoic acid]: 5.00 to 6.52; for `NC(CCS(=O)(=O)O)P(=O)(O)Cc1cc(-c2ccccc2)on1` (stereo not shown) [Example 66, 3-amino-3-{hydroxy[(5-phenyl-1,2-oxazol-3-yl)methyl]phosphoryl}propane-1-sulfonic acid]: 5.00 to 6.52.
Regarding `COc1ccc(CCP(=O)(O)C(N)CCC(=O)O)cc1` (stereo not shown) [Example 34, 4-amino-4-{hydroxy[2-(4-methoxyphenyl)ethyl]phosphoryl}butanoic acid], the pIC50 is above 7.52.
As to `COc1c(Cl)cccc1CCP(=O)(O)C(N)CCC(=O)O` (stereo not shown) [Example 41, 4-amino-4-{[2-(3-chloro-2-methoxyphenyl)ethyl](hydroxy)phosphoryl}butanoic acid], the pIC50 is 6.52 to 7.52.
Regarding `NC(CCC(=O)O)P(=O)(O)CCc1ccccc1-c1ccccc1` (stereo not shown) [Example 39, 4-amino-4-[(2-{[1,1′-biphenyl]-2-yl}ethyl)(hydroxy)phosphoryl]butanoic acid], the pIC50 was 6.52 to 7.52.
On to `NC(CCC(=O)O)P(=O)(O)CCc1ccccc1Cl` (stereo not shown) [Example 28, 4-amino-4-{[2-(2-chlorophenyl)ethyl](hydroxy)phosphoryl}butanoic acid], for which the pIC50 was above 7.52.
Turning to `NC(CCC(=O)O)P(=O)(O)Cc1ccccc1` (stereo not shown) [Example 1, 4-amino-4-[benzyl(hydroxy)phosphoryl]butanoic acid], the pIC50 is 6.52 to 7.52.
Take `COCCOc1ccccc1CCP(=O)(O)C(N)CCC(=O)O` (stereo not shown) [Example 44, 3-carboxy-1-[hydroxy({2-[2-(2-methoxyethoxy)phenyl]ethyl})phosphoryl]propan-1-aminium chloride]: the pIC50 is above 7.52.
The figure for `COc1ccccc1CCP(=O)(O)C(N)CCS(=O)(=O)O` (stereo not shown) [Example 62, 3-amino-3-{hydroxy[2-(2-methoxyphenyl)ethyl]phosphoryl}propane-1-sulfonic acid] is 6.52 to 7.52; for `NC(CCC(=O)O)P(=O)(O)Cc1cc(-c2ccccc2)on1` (stereo not shown) [Example 21, 4-amino-4-{hydroxy[(5-phenyl-1,2-oxazol-3-yl)methyl]phosphoryl}butanoic acid] it is 6.52 to 7.52; for `COc1ccccc1CCP(=O)(O)C(N)CCC(=O)O` (stereo not shown) [Example 32, 4-amino-4-{hydroxy[2-(2-methoxyphenyl)ethyl]phosphoryl}butanoic acid] it is above 7.52.
The figure for `N[C@H](CCC(=O)O)P(=O)(O)CCc1ccccc1` [Example 51, (1S)-3-carboxy-1-[hydroxy(2-phenylethyl)phosphoryl]propan-1-aminium chloride] is 5.00 to 6.52.
As to `COc1cc(F)ccc1CCP(=O)(O)C(N)CCC(=O)O` (stereo not shown) [Example 46, 4-amino-4-{[2-(4-fluoro-2-methoxyphenyl)ethyl](hydroxy)phosphoryl}butanoic acid], the pIC50 is above 7.52.
Turning to `NC(CCC(=O)O)P(=O)(O)CCc1cccc(C(F)(F)F)c1` (stereo not shown) [Example 26, 4-amino-4-[hydroxy({2-[3-(trifluoromethyl)phenyl]ethyl})phosphoryl]butanoic acid], the pIC50 is 6.52 to 7.52.
On to `NC(CCC(=O)O)P(=O)(O)Cc1cccc(Oc2ccccc2)c1` (stereo not shown) [Example 17, 4-amino-4-{hydroxy[(3-phenoxyphenyl)methyl]phosphoryl}butanoic acid], for which the negative-log IC50 (pIC50) is 6.52 to 7.52.
As for `N[C@@H](CCC(=O)O)P(=O)(O)CCc1ccccc1OC1CCCCC1` [Example 53, (4R)-4-amino-4-({2-[2-(cyclohexyloxy)phenyl]ethyl} (hydroxy)phosphoryl) butanoic acid], the pIC50 is above 7.52.
Turning to `COc1ccccc1CP(=O)(O)C(N)CCC(=O)O` (stereo not shown) [Example 10, 4-amino-4-{hydroxy[(2-methoxyphenyl)methyl]phosphoryl}butanoic acid], the pIC50 is above 7.52.
Turning to `NC(CCC(=O)O)P(=O)(O)Cc1cccc(OC(F)(F)F)c1` (stereo not shown) [Example 7, 4-amino-4-[hydroxy({[3-(trifluoromethoxy)phenyl]methyl})phosphoryl]butanoic acid], the pIC50 is 6.52 to 7.52.
Turning to `Cc1ccccc1CP(=O)(O)C(N)CCC(=O)O` (stereo not shown) [Example 2, 4-amino-4-{hydroxy[(2-methylphenyl)methyl]phosphoryl}butanoic acid], the pIC50 is 6.52 to 7.52.
In the case of `NC(CCP(=O)(O)O)P(=O)(O)CCc1ccccc1` (stereo not shown) [Example 68, {3-amino-3-[hydroxy(2-phenylethyl)phosphoryl]propyl}phosphonic acid], the pIC50 was 5.00 to 6.52.
`NC(CCC(=O)O)P(=O)(O)CCCc1ccccc1` (stereo not shown) [Example 37, 4-amino-4-[hydroxy(3-phenylpropyl)phosphoryl]butanoic acid]: the pIC50 is 6.52 to 7.52.
The figure for `NC(CCS(=O)(=O)O)P(=O)(O)CCc1ccccc1` (stereo not shown) [Example 61, 3-amino-3-[hydroxy(2-phenylethyl)phosphoryl]propane-1-sulfonic acid] is 5.00 to 6.52; for `NC(CCC(=O)O)P(=O)(O)Cc1cccc2ccccc12` (stereo not shown) [Example 15, 4-amino-4-{hydroxy[(naphthalen-1-yl)methyl]phosphoryl}butanoic acid] it is above 7.52; for `CS(=O)(=O)c1ccc(CP(=O)(O)C(N)CCC(=O)O)cc1` (stereo not shown) [Example 9, 4-amino-4-{hydroxy[(4-methanesulfonylphenyl)methyl]phosphoryl}butanoic acid] it is 5.00 to 6.52.
Turning to `NC(CCC(=O)O)P(=O)(O)CCc1ccccc1OC1CCCCC1` (stereo not shown) [Example 43, 3-carboxy-1-({2-[2-(cyclohexyloxy)phenyl]ethyl}(hydroxy)phosphoryl) propan-1-aminium chloride], the pIC50 is above 7.52.
For the compound `Cc1ccc(CP(=O)(O)C(N)CCC(=O)O)cc1` (stereo not shown) [Example 4, 4-amino-4-{hydroxy[(4-methylphenyl)methyl]phosphoryl}butanoic acid], the pIC50 is 6.52 to 7.52.
`NC(CCC(=O)O)P(=O)(O)Cc1cc(-c2ccccc2)no1` (stereo not shown) [Example 20, 4-amino-4-{hydroxy[(3-phenyl-1,2-oxazol-5-yl)methyl]phosphoryl}butanoic acid]: the pIC50 was 5.00 to 6.52.
